Measured values taken from PubChem BioAssay (NCI).
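96-well plates; 48 h exposure; 5 concentrations. Endpoints by linear interpolation between flanking doses. Not reached: highest tested concentration assigned. At the TGI there is no net growth.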

Tests used:
Assay in all cases: NCI anticancer screen, dose series, 48 h
A498 renal = tested on: A498 renal
ACHN renal = tested on: ACHN renal
HCT-116 colon = tested on: HCT-116 colon
K-562 leukemia = tested on: K-562 leukemia
MDA-N = tested on: MDA-N
SF-268 CNS = tested on: SF-268 CNS
SF-295 CNS = tested on: SF-295 CNS
SK-MEL-2 melanoma = tested on: SK-MEL-2 melanoma
SR leukemia = tested on: SR leukemia
U251 CNS = tested on: U251 CNS

Structure (SMILES)	TGI (A498 renal) [µM]	TGI (ACHN renal) [µM]	TGI (HCT-116 colon) [µM]	TGI (K-562 leukemia) [µM]	TGI (MDA-N) [µM]	TGI (SF-268 CNS) [µM]	TGI (SF-295 CNS) [µM]	TGI (SK-MEL-2 melanoma) [µM]	TGI (SR leukemia) [µM]	TGI (U251 CNS) [µM]
COc1nc(C#CCC(C)O)nc(OC)n1 (configuration not stated)	77.1	33.3	43.6	> 100	> 100	69.6	> 100	87.3	> 100	76.9
COC(=O)[C@]12CC[C@H]3CN(C(=O)OCc4ccccc4)[C@H]([C@H]31)[C@H](c1ccco1)N2S(=O)(=O)c1ccc(C)cc1	79.7	> 100	29.2	> 100	50.4	59.3	81.9	49.3	81	71.4
COc1ccc(C(OCC2OC(n3cc(C)c(=O)[nH]c3=O)CC2n2cc(Cn3cc(F)c(=O)[nH]c3=O)nn2)(c2ccccc2)c2ccccc2)cc1 (configuration not stated)	28.6	27.2	13.2		3.53	35	19.4	24.8	8.84	21.2
C=CCO/N=C/c1cc(NC(=S)c2ccoc2C)ccc1Cl	58.6	19.4	> 100		32.2	36	26.6	28	30.9	60.6
COc1ccc(CC(O)CN2CCOCC2)cc1 (configuration not stated)	> 100	> 100	> 100	> 100	> 100	> 100	> 100	> 100	> 100	> 100
c1ccc2sc(SCSc3nc4ccccc4s3)nc2c1	> 100	> 100	> 100	> 100	> 100	> 100	> 100	> 100	> 100	> 100
COc1cc(C2CC(C)(Nc3ccccc3)Oc3cc4c(cc32)OCO4)cc(OC)c1OC (configuration not stated)	> 100	> 90.7	> 51.2	> 100	0.183	> 100	3.57	> 29.4	> 60.7	17.2
CC(C)(C)NC(=O)/C(=C\Sc1ccccc1)c1ccc2c(c1)OCO2	59	> 100	65.8	> 100	59.8	52.3	> 100	34.6	83.8	98.6
Cc1csc(-c2cn(C)c3c2C(=O)C(N)=CC3=O)n1	> 100	> 52.1	> 100	> 100	45.2	> 100	20.8	> 82.7	19.5	> 100
CCCCC1c2c([nH]c3ccccc23)C2C(=O)N(c3ccc(OC)cc3)C(=O)C2C1CCC (configuration not stated)	6.71	> 10	7.56	7.43	7.45	> 10	> 10	> 10	8.22	> 10
CO[C@]12CC(=O)C3(C(C[C@H]4CC5CC=C6C[C@@H](OC(C)=O)CC[C@]6(OC(C)=O)C5C[C@@]43C)C1)C1C[C@H]3[C@@H]4CC=C5C[C@@H](OC(C)=O)CC[C@]5(OC(C)=O)[C@H]4CC[C@]3(C)C12 (some centres not stated)	66.1	> 100	> 100	> 100	30.6	> 100	54	41.1	> 100	> 100
COc1ccc(C2(CC(C)O)SCCCS2)cc1 (configuration not stated)	> 100	> 100	> 100	> 100	> 100	> 100	> 100	> 100	> 100	> 100
CC1CC[C@@]2(OC1)OC1C[C@H]3[C@@H]4CC[C@H]5CC(OC6OC(CO)C(OC7OC(CO)C(O)C(O)C7OC7OC(CO)C(O)C(O)C7O)C(O)C6O)CCC5(C)[C@H]4CCC3(C)C1[C@@H]2C (some centres not stated)	4.08	6.06	7.34	9.01	9.31	8.77	11	8.05	7.95	2.74
O=c1c2cc3c(cc2[nH]c2ncccc12)OCO3	> 10	> 10	> 10	> 10	> 10	> 10	> 10	> 10	> 10	> 10
O=C1/C(=C\c2cccc(Oc3ccccc3)c2)S(=O)(=O)C(c2ccccc2)N1Cc1ccccc1 (configuration not stated)	> 100	49.4	> 100	> 100	95.5		> 100	40.7	46.2	> 100
O=c1cc(N=P(c2ccccc2)(c2ccccc2)c2ccccc2)n(-c2ccccc2)c(=O)n1-c1ccccc1	21.1	45.4	42.5	23.9	43.7	> 100	85.8	58.1	24.6	29.2
